We go through 7 compounds from DBAASP.

Converted amounts (≈) assume the structure as drawn.

Holding throughout (assay): ≥ marks a high value that may be exact or a test limit, other limits are often not marked, values filed in µg/mL are converted to µM
Assay [1] has as its system Bacillus subtilis DSM 347.
Assay [2] relates to Escherichia coli DSM 1116.
In assay [3] the test system is Franconibacter helveticus DSM 18390.
In assay [4] the test system is Staphylococcus xylosus DSM 20267.
Assay [5] relates to Escherichia coli ATCC 11229.
Assay [6] deals with Escherichia coli ATCC 35218.
The subject of assay [7] is Klebsiella pneumoniae ATCC 13866.
Assay [8] deals with Pseudomonas aeruginosa ATCC 27853.
Assay [9] concerns Staphylococcus aureus ATCC 25923.
The test system of assay [10] is Staphylococcus aureus ATCC 29213.
For assay [11], the system named is Staphylococcus aureus ATCC 33591.
Assay [12] has as its system Agrobacterium tumefaciens DSM 3129.
For assay [13], the system named is Bacillus megaterium QMB 1551.
Assay [14] deals with Bacillus subtilis NRRL B-237.
The subject of assay [15] is Bacillus thuringiensis serovar tenebrionis DSM 2803.
The subject of assay [16] is Brenneria salicis NCPPB 2530.
Assay [17] deals with Clavibacter michiganensis subsp. insidiosus NCPPB 1109.
For assay [18], the system named is Escherichia coli NCTC 9001.
Assay [19] deals with Paenibacillus alvei LMG 6922.
The subject of assay [20] is Pseudomonas syringae pv. tomato NCPPB 1106.
Assay [21] concerns Salmonella enterica subsp. enterica serovar Newport.
In assay [22] the test system is Salmonella typhimurium ATCC 23565.
Assay [23] concerns Serratia marcescens ATCC 17991.
For assay [24], the system named is Shigella flexneri CP87.
Assay [25] has as its system Sinorhizobium meliloti ZB314.
Assay [26] concerns Bacillus pumilus.
For assay [27], the system named is Candida boidinii.
Assay [28] deals with Escherichia coli.
In assay [29] the test system is Psychrobacter sp. TAD 1.
Assay [30] has as its system Escherichia coli CMCC 44102.
Assay [31] has as its system Staphylococcus aureus CMCC 26003.
Assay [32] relates to Staphylococcus epidermidis ATCC 12228.
Assay [33] has as its system Escherichia coli UB1005.
For assay [34], the system named is Salmonella enterica subsp. enterica serovar Pullorum C79-13.
The test system of assay [35] is Salmonella enterica subsp. enterica serovar Typhi CMCC 50071.
Assay [36] has as its system Salmonella enterica subsp. enterica serovar Typhimurium ATCC 14028.
Assay [37] relates to Salmonella enterica subsp. enterica serovar Typhimurium C77-31.
Assay [38] has as its system Acinetobacter baumannii ATCC 17978.
In assay [39] the test system is Escherichia coli ATCC 8739.
Assay [40] deals with Staphylococcus aureus HNCMO 112011.

As usually defined, the MIC is the lowest concentration that inhibits growth of the organism. High values mean a less susceptible organism, low ones a more susceptible organism. For `CC(C)C[C@H](NC(=O)[C@H](CCCCN)NC(=O)[C@H](CC(C)C)NC(=O)[C@H](CCCCN)NC(=O)[C@H](CC(C)C)NC(=O)[C@H](CCCCN)NC(=O)[C@H](CC(C)C)NC(=O)[C@H](CCCCN)NC(=O)[C@H](CC(C)C)NC(=O)[C@H](CCCCN)NC(=O)[C@H](CC(C)C)NC(=O)[C@H](CCCCN)NC(=O)[C@H](CC(C)C)NC(=O)[C@H](CCCCN)NC(=O)[C@H](CC(C)C)NC(=O)[C@H](CCCCN)NC(=O)[C@H](CC(C)C)NC(=O)[C@@H](N)CCCCN)C(N)=O` [KLKLKLKLKLKLKLKLKL], the MIC in [1] was 14.6 µM (≈ 32 µg/mL); in assay [2], 14.6 µM (≈ 32 µg/mL); in [3] it was 7.31 µM (≈ 16 µg/mL); in [4], 3.65 µM (≈ 8 µg/mL).
Regarding `CSCC[C@H](NC(=O)[C@H](CC(C)C)NC(=O)CN)C(=O)N[C@@H](CCCCN)C(=O)N[C@@H](CC(C)C)C(=O)N[C@@H](CC(C)C)C(=O)N[C@@H](CCCN=C(N)N)C(=O)N[C@@H](CCC(=O)O)C(=O)N[C@@H](CC(C)C)C(=O)N[C@@H](CC(C)C)C(=O)N[C@@H](Cc1cnc[nH]1)C(=O)N[C@@H](CCSC)C(=O)N[C@@H](Cc1ccccc1)C(=O)N[C@@H](CO)C(=O)N[C@@H](CCCN=C(N)N)C(=O)N[C@H](C(=O)NCC(=O)O)C(C)C` [GLMKLLRELLHMFSRVG], the MIC was at least 64 µM in [5]; at least 64 µM in [6]; 32 µM (≈ 64 µg/mL) in assay [7]; 8 µM (≈ 16 µg/mL) in assay [8]; 32 µM (≈ 64 µg/mL) in assay [9]; 32 µM (≈ 64 µg/mL) in assay [10]. The compound also showed a minimal inhibitory concentration (MIC) in [11] of 16 µM (≈ 32 µg/mL).
Take `CC[C@H](C)[C@H](NC(=O)[C@H](Cc1ccc(O)cc1)NC(=O)[C@@H](NC(=O)[C@@H]1CCCN1C(=O)[C@H](CCCN=C(N)N)NC(=O)[C@H](CC(N)=O)NC(=O)[C@H](CC(N)=O)NC(=O)CN)C(C)C)C(=O)N1CCC[C@H]1C(=O)N[C@@H](CCC(N)=O)C(=O)N1CCC[C@H]1C(=O)N[C@@H](CCCN=C(N)N)C(=O)N1CCC[C@H]1C(=O)N1CCC[C@H]1C(=O)N[C@@H](Cc1cnc[nH]1)C(=O)N1CCC[C@H]1C(=O)N[C@@H](CCCN=C(N)N)C(=O)O` [GNNRPVYIPQPRPPHPR]: the MIC in assay [12] was 0.1 µM (≈ 0.2 µg/mL); in assay [13] it was at least 75.2 µM; in assay [14] it was at least 100 µM; in assay [15], at least 100 µM; in assay [16], 0.01 µM (≈ 0.02 µg/mL); in [17] it was 25.1 µM (≈ 50 µg/mL). The MIC is 0.0501 µM (≈ 0.1 µg/mL) in assay [18]; at least 100 µM in assay [19]; 0.1 µM (≈ 0.2 µg/mL) in assay [20]; 0.1 µM (≈ 0.2 µg/mL) in assay [21]; 0.0501 µM (≈ 0.1 µg/mL) in assay [22]; at least 100 µM in assay [23]. The MIC in assay [24] and in assay [25] was 0.0501 µM (≈ 0.1 µg/mL) each time.
`CC[C@H](C)[C@H](NC(=O)CNC(=O)[C@H](CCCN=C(N)N)NC(=O)[C@H](CC(C)C)NC(=O)[C@H](CC(C)C)NC(=O)[C@H](Cc1cnc[nH]1)NC(=O)CNC(=O)[C@H](Cc1ccccc1)NC(=O)[C@@H](N)Cc1ccccc1)C(=O)N[C@H](C(=O)N[C@@H](CO)C(=O)N[C@H](C(=O)NCC(=O)N[C@@H](CCCCN)C(=O)N[C@@H](Cc1cnc[nH]1)C(=O)N[C@H](C(=O)N[C@@H](Cc1cnc[nH]1)C(=O)NCC(=O)N[C@@H](CC(C)C)C(=O)N[C@H](C(=O)N[C@H](C(=O)NCC(=O)O)[C@@H](C)O)[C@@H](C)CC)[C@@H](C)CC)C(C)C)C(C)C` [FFGHLLRGIVSVGKHIHGLITG]: the MIC in assay [26] was 10 µM (≈ 23.6 µg/mL); in assay [27], at least 50 µM; in assay [28], 25 µM (≈ 59 µg/mL); in [29], 2.5 µM (≈ 5.9 µg/mL).
As to `CC[C@H](C)[C@H](NC(=O)[C@H](CCCN=C(N)N)NC(=O)[C@H](CCCN=C(N)N)NC(=O)[C@H](CC(C)C)NC(=O)[C@H](Cc1ccccc1)NC(=O)[C@@H]1CCCN1C(=O)[C@H](CCCN=C(N)N)NC(=O)[C@H](CCSC)NC(=O)[C@@H](NC(=O)[C@H](CCCCN)NC(=O)[C@H](CCCCN)NC(=O)[C@H](CS)NC(=O)[C@@H](NC(=O)CNC(=O)[C@@H]1CCCN1C(=O)[C@H](CC(C)C)NC(=O)[C@@H](NC(=O)[C@@H](N)CCCCN)[C@@H](C)CC)C(C)C)[C@@H](C)CC)C(=O)N[C@@H](CO)C(=O)N[C@@H](CCCCN)C(=O)N[C@@H](CC(=O)O)C(=O)N[C@H](C(=O)N[C@@H](CC(C)C)C(=O)N[C@H](C(=O)NCC(=O)N[C@@H](CCCCN)C(=O)N[C@@H](CCCCN)C(N)=O)[C@@H](C)O)[C@@H](C)CC` [KILPGVCKKIMRPFLRRISKDILTGKK], the MIC is 8 µM (≈ 25.1 µg/mL) in assay [30], 32 µM (≈ 100 µg/mL) in assay [8], 8 µM (≈ 25.1 µg/mL) in [31] and 8 µM (≈ 25.1 µg/mL) in assay [32].
Take `NCCCC[C@H](NC(=O)[C@H](CCCCN)NC(=O)[C@H](CCCN=C(N)N)NC(=O)[C@H](CCCN=C(N)N)NC(=O)[C@H](Cc1c[nH]c2ccccc12)NC(=O)[C@H](CCC(N)=O)NC(=O)[C@H](Cc1c[nH]c2ccccc12)NC(=O)[C@H](CCCN=C(N)N)NC(=O)[C@H](CCCN=C(N)N)NC(=O)[C@H](CCCCN)NC(=O)[C@@H](N)CCCCN)C(N)=O` [KKRRWQWRRKK]: the MIC was at least 32 µM in [33]; at least 128 µM in [34]; at least 128 µM in [35]; above 128 µM in assay [36]; at least 128 µM in [37]; 128 µM (≈ 212 µg/mL) in [9]. Moreover, the MIC in assay [10] and in assay [32] was above 128 µM each time.
Take `CC[C@H](C)[C@H](NC(=O)[C@H](CCCCN)NC(=O)[C@H](CCCCN)NC(=O)[C@H](C)NC(=O)[C@H](CC(C)C)NC(=O)[C@H](C)NC(=O)[C@H](C)NC(=O)[C@H](CC(C)C)NC(=O)[C@H](C)NC(=O)[C@@H](N)CCCCN)C(=O)N[C@@H](CC(C)C)C(=O)O` [KALAALAKKIL]: the MIC in assay [38], in assay [39] and in [40] was 25 µM (≈ 28.5 µg/mL) each time.
